From patent publication US4579940A, “14-de(hydroxymethyl)-mycaminosyltylonolide derivatives” (Toyo Jozo Kabushiki Kaisha, priority 1983, dated 1986)
Converted amounts (≈) assume the structure as drawn. Read-outs that look alike come from different tables or passages of the source.

Legend:
Format in all cases: cell-based
Strept. pyogenes N.Y.5 = assay: minimum inhibitory concentration (MIC), Strept. pyogenes N.Y.5; conditions: Streptococcus pyogenes
Excerpt: In Table 1, the abbreviations have the following meanings: […]

Strept. agalactiae 1020 = assay: minimum inhibitory concentration (MIC), Strept. agalactiae 1020; conditions: Streptococcus agalactiae
Staph. aureus MS353C36 = assay: minimum inhibitory concentration (MIC), Staph. aureus MS353C36*; conditions: Staphylococcus aureus, macrolide-antibiotics resistant
Excerpt: (§1) In Table 1, the abbreviations have the following meanings:
(§2) The test organisms were macrolide-antibiotics resistant A-group stains (clinical isolates of strains resistant to erythromycin, olenadomycin and 16-membered macrolide antibiotics).

Staph. aureus MS353 = assay: minimum inhibitory concentration (MIC), Staph. aureus MS353; conditions: Staphylococcus aureus
Staph. aureus ATCC6538P = assay: minimum inhibitory concentration (MIC), Staph. aureus ATCC6538P; conditions: Staphylococcus aureus
Strept. pyogenes 1022 = assay: minimum inhibitory concentration (MIC), Strept. pyogenes 1022*; conditions: Streptococcus pyogenes, macrolide-antibiotics resistant
Excerpt: as §1, §2

Strept. faecalis 1501 = assay: minimum inhibitory concentration (MIC), Strept. faecalis 1501; conditions: Enterococcus faecalis
[1] = test system: Staph epidermidis ap-al-l; assay: minimum inhibitory concentration (MIC), Staph epidermidis
E. coli NIHJ-JC2 = assay: minimum inhibitory concentration (MIC), E. coli NIHJ-JC2; conditions: Escherichia coli, NIHJJC2
Serratia marcescens = assay: minimum inhibitory concentration (MIC), Serratia marcescens
Proteus vulgaris OX19 = assay: minimum inhibitory concentration (MIC), Proteus vulgaris OX19
[2] = test system: Kleb. pneumoniae ATCC10031; assay: minimum inhibitory concentration (MIC), Kleb. pneumoniae ATCC10031; conditions: Klebsiella pneumoniae
[3] = Staph epidermidis ap-al-l, read-out: MIC

SMILES | MIC (Strept. pyogenes N.Y.5) [µg/mL] | MIC (Strept. agalactiae 1020) [µg/mL] | MIC (Staph. aureus MS353C36) [µg/mL] | MIC (Staph. aureus MS353) [µg/mL] | MIC (Staph. aureus ATCC6538P) [µg/mL] | MIC (Strept. pyogenes 1022) [µg/mL] | MIC (Strept. faecalis 1501) [µg/mL] | MIC [1, 3] [µg/mL] | MIC (E. coli NIHJ-JC2) [µg/mL] | MIC [1] [µg/mL] | MIC (Serratia marcescens) [µg/mL] | MIC (Proteus vulgaris OX19) [µg/mL] | MIC [2] [µg/mL]
CCC1OC(=O)CC(O)C(C)C(OC2OC(C)C(O)C(N(C)C)C2O)C(CC=O)CC(C)C(=O)C=CC(C)=CC1C(=O)OC(C)C (stereo not drawn) [G, 14-isopropyloxycarbonyl-14-de(hydroxymethyl)-O-mycaminosyltylonolide] | ≤ 0.05 | ≤ 0.05 | 0.8 (≈ 1.22 µM) | 0.4 (≈ 0.612 µM) | 0.4 (≈ 0.612 µM) | > 100 | 0.2 (≈ 0.306 µM) | 0.2 (≈ 0.306 µM) |  |  |  |  | 
CCC1OC(=O)CC(O)C(C)C(OC2OC(C)CC(N(C)C)C2OC(C)=O)C(CC(OC)OC)CC(C)C(=O)C=CC(C)=CC1CO (stereo not drawn) [E, 2'-O-acetyl-4'-deoxy-O-mycaminosyltylonolide dimethylacetal] | ≤ 0.05 | ≤ 0.05 | 0.1 (≈ 0.149 µM) | 0.1 (≈ 0.149 µM) | 0.1 (≈ 0.149 µM) | > 100 | ≤ 0.05 | ≤ 0.05 |  |  |  |  | 
CC[C@H]1OC(=O)C[C@@H](O)[C@H](C)[C@@H](O[C@@H]2O[C@H](C)[C@@H](O[C@H]3C[C@@](C)(O)[C@@H](O)[C@H](C)O3)[C@H](N(C)C)[C@H]2O)[C@@H](CC=O)C[C@@H](C)C(=O)/C=C/C(C)=C/[C@@H]1CO[C@@H]1O[C@H](C)[C@@H](O)[C@@H](OC)[C@H]1OC [TS, tylosin, reference compound] |  | 0.4 (≈ 0.437 µM) | > 100 |  |  | > 100 | 1.6 (≈ 1.75 µM) |  | > 100 | 0.4 (≈ 0.437 µM) |  |  | 
CCC1OC(=O)CC(O)C(C)C(OC2OC(C)C(OC(C)=O)C(N(C)C)C2OC(C)=O)C(CC(OC)OC)CC(C)C(=O)C=CC(C)=CC1CO (stereo not drawn) [A, 2',4'-di-O-acetyl-O-mycaminosyltylonolide dimethylacetal] | ≤ 0.05 | ≤ 0.05 |  | 0.2 (≈ 0.275 µM) | 0.2 (≈ 0.275 µM) | > 100 | 0.2 (≈ 0.275 µM) | 0.1 (≈ 0.137 µM) | 25 (≈ 34.3 µM) |  | 12.5 (≈ 17.2 µM) | 6.3 (≈ 8.66 µM) | 1.6 (≈ 2.2 µM)
CCC1CC=C(C)C=CC(=O)C(C)CC(CC=O)C(OC2OC(C)CC(N(C)C)C2O)C(C)C(O)CC(=O)O1 (stereo not drawn) [F, 14-de(hydroxymethyl)-4'-deoxy-O-mycaminosyltylonolide] | ≤ 0.05 | ≤ 0.05 | 0.2 (≈ 0.363 µM) | 0.1 (≈ 0.181 µM) | 0.1 (≈ 0.181 µM) | > 100 | 0.2 (≈ 0.363 µM) | ≤ 0.05 |  |  |  |  | 
CCC1OC(=O)CC(O)C(C)C(OC2OC(C)CC(N(C)C)C2OC(C)=O)C(CC=O)CC(C)C(=O)C=CC(C)=CC1CO (stereo not drawn) [D, 2'-O-acetyl-4'-deoxy-O-mycaminosyltylonolide] | ≤ 0.05 | ≤ 0.05 | 0.2 (≈ 0.321 µM) | 0.2 (≈ 0.321 µM) | 0.2 (≈ 0.321 µM) | > 100 | 0.2 (≈ 0.321 µM) | ≤ 0.05 |  |  |  |  | 
CCC1CC=C(C)C=CC(=O)C(C)CC(CC=O)C(OC2OC(C)C(O)C(N(C)C)C2O)C(C)C(O)CC(=O)O1 (stereo not drawn) [C, 14-de(hydroxymethyl)-O-mycaminosyltylonolide] | ≤ 0.05 | ≤ 0.05 | ≤ 0.05 | ≤ 0.05 | ≤ 0.05 | > 100 | 0.1 (≈ 0.176 µM) | ≤ 0.05 |  |  |  |  | 
CC[C@H]1OC(=O)[C@H](C)[C@@H](O[C@H]2C[C@@](C)(OC)[C@@H](O)[C@H](C)O2)[C@H](C)[C@@H](O[C@@H]2O[C@H](C)C[C@H](N(C)C)[C@H]2O)[C@](C)(O)C[C@@H](C)C(=O)[C@H](C)[C@@H](O)[C@]1(C)O [EM, erythromycin, reference compound] | ≤ 0.05 | ≤ 0.05 | > 100 | 0.2 (≈ 0.273 µM) | 0.2 (≈ 0.273 µM) | > 100 |  |  |  | 0.1 (≈ 0.136 µM) |  |  | 
CCOC(=O)C1C=C(C)C=CC(=O)C(C)CC(CC=O)C(OC2OC(C)C(O)C(N(C)C)C2O)C(C)C(O)CC(=O)OC1CC (stereo not drawn) [H, 14-ethyloxycarbonyl-14-de(hydroxymethyl)-O-mycaminosyltylonolide] | ≤ 0.05 | ≤ 0.05 | 0.4 (≈ 0.625 µM) | 0.2 (≈ 0.313 µM) | 0.2 (≈ 0.313 µM) | > 100 | ≤ 0.05 | 0.1 (≈ 0.156 µM) |  |  |  |  | 
